Measurements: PubChem BioAssay AID248 (DTP/NCI, 2004)
Inconclusive results and toxic doses are left out. No stated cut-off is given here; in the data, active means T/C of 150% or more; inactive means T/C below 125%.

Test system: L1210 leukemia ip in BDF1 mice, survival T/C
Assay: NCI In Vivo Anticancer Drug Screen. Data for tumor model L1210 Leukemia (intraperitoneal) in B6D2F1 (BDF1) mice
Conditions: endpoint: mean survival time, higher = longer survival
How it was run: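 In this screen, tumor-bearing mice given compound are compared to those given vehicle, and their survival values are reported as a treated-to-control quotient.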

[1] = dose: 12.5 mg/kg/injection, schedule: Q04DX002 (ip), vehicle: saline with Tween-80
[2] = dose: 25.0 mg/kg/injection, schedule: Q04DX002 (ip), vehicle: saline with Tween-80
[3] = dose: 50.0 mg/kg/injection, schedule: Q04DX002 (ip), vehicle: saline with Tween-80
[4] = dose: 100.0 mg/kg/injection, schedule: Q04DX002 (ip), vehicle: saline with Tween-80
[5] = dose: 100.0 mg/kg/injection, schedule: Q04DX003 (ip), vehicle: saline with Tween-80
[6] = dose: 200.0 mg/kg/injection, schedule: Q04DX003 (ip), vehicle: saline with Tween-80
[7] = dose: 100.0 mg/kg/injection, schedule: Q01DX001 (ip), vehicle: saline with Tween-80
[8] = dose: 200.0 mg/kg/injection, schedule: Q01DX001 (ip), vehicle: saline with Tween-80
[9] = dose: 400.0 mg/kg/injection, schedule: Q01DX001 (ip), vehicle: saline with Tween-80
[10] = dose: 12.5 mg/kg/injection, schedule: Q04DX003 (ip), vehicle: saline
[11] = dose: 25.0 mg/kg/injection, schedule: Q04DX003 (ip), vehicle: saline
[12] = dose: 100.0 mg/kg/injection, schedule: Q04DX003 (ip), vehicle: saline
[13] = dose: 200.0 mg/kg/injection, schedule: Q04DX003 (ip), vehicle: saline
[14] = dose: 400.0 mg/kg/injection, schedule: Q04DX003 (ip), vehicle: saline

Measured: T/C

c1ccc(C2CC2NC2=NCCO2)cc1 (centres undefined)
inactive: [1] 104 % of control | [2] 101 % of control | [3] 96 % of control | [4] 93 % of control

Clc1ccc(C(c2ccc(Cl)cc2)N2CCNCC2)cc1
inactive: dose: 25.0 mg/kg/injection, schedule: Q01DX009 (ip), vehicle: saline with Tween-80 98 % of control

Cn1ncc2c(N)[nH]nc21
inactive: dose: 75.0 mg/kg/injection, schedule: Q01DX001 (ip), vehicle: saline 107 % of control | dose: 150.0 mg/kg/injection, schedule: Q01DX001 (ip), vehicle: saline 90 % of control | dose: 300.0 mg/kg/injection, schedule: Q01DX001 (ip), vehicle: saline 98 % of control

CCOC(=O)C(C#N)c1cccc(C)c1 (centres undefined)
inactive: [5] 95 % of control | [6] 98 % of control

O=C(c1ccccc1)c1ccc(N2CCOCC2)cc1
inactive: dose: 100.0 mg/kg/injection, schedule: Q01DX001 (ip), vehicle: other 96 % of control | dose: 200.0 mg/kg/injection, schedule: Q01DX001 (ip), vehicle: other 98 % of control | dose: 400.0 mg/kg/injection, schedule: Q01DX001 (ip), vehicle: other 90 % of control

CC(C)(C)C(=C=C=O)C#N
inactive: [7] 87 % of control | [8] 94 % of control | [9] 87 % of control

CCCCCCCCCCCCCC[N+](C)(C)CCCCCCCCCCCCCC
inactive: dose: 12.5 mg/kg/injection, schedule: Q01DX009 (ip), vehicle: saline 108 % of control | [10] 104 % of control | dose: 25.0 mg/kg/injection, schedule: Q01DX009 (ip), vehicle: saline 106 % of control | [11] 105 % of control | dose: 50.0 mg/kg/injection, schedule: Q01DX009 (ip), vehicle: saline 90 % of control | dose: 50.0 mg/kg/injection, schedule: Q04DX003 (ip), vehicle: saline 102 % of control

COC(=O)Nc1cccc2c1-c1ccccc1C2=O
inactive: dose: 50.0 mg/kg/injection, schedule: Q04DX003 (ip), vehicle: Klucel (hydroxypropylcellulose) (HPC) 95 % of control | dose: 100.0 mg/kg/injection, schedule: Q04DX003 (ip), vehicle: Klucel (hydroxypropylcellulose) (HPC) 95 % of control | dose: 200.0 mg/kg/injection, schedule: Q04DX003 (ip), vehicle: Klucel (hydroxypropylcellulose) (HPC) 100 % of control

O=C(OCCBr)c1ccccc1[N+](=O)[O-]
inactive: [12] 105 % of control | [13] 97 % of control | [14] 100 % of control

CC(=O)Nc1ccc(SC(Sc2ccc(NC(C)=O)cc2)c2ccccc2)cc1
inactive: dose: 100.0 mg/kg/injection, schedule: Q01DX001 (ip), vehicle: saline 92 % of control | dose: 200.0 mg/kg/injection, schedule: Q01DX001 (ip), vehicle: saline 92 % of control | dose: 400.0 mg/kg/injection, schedule: Q01DX001 (ip), vehicle: saline 92 % of control

O=C(O)CCN1C/C(=C\c2ccccc2)C(=O)C1=O
inactive: [12] 101 % of control | [13] 101 % of control | [14] 101 % of control

Cc1nc(N)[nH]c(=O)c1NC(=O)c1ccc(N)cc1
inactive: [1] 101 % of control | [2] 96 % of control | [3] 99 % of control

Cc1cc2oc(=O)c(Cl)c(Cl)c2c(C)c1Cl
inactive: dose: 10.0 mg/kg/injection, schedule: Q01DX001 (ip), vehicle: saline 105 % of control | dose: 10.0 mg/kg/injection, schedule: Q01DX009 (ip), vehicle: Klucel (hydroxypropylcellulose) (HPC) 101 % of control | dose: 10.0 mg/kg/injection, schedule: Q04DX003 (ip), vehicle: Klucel (hydroxypropylcellulose) (HPC) 86 % of control | dose: 20.0 mg/kg/injection, schedule: Q01DX001 (ip), vehicle: saline 111 % of control | dose: 20.0 mg/kg/injection, schedule: Q01DX009 (ip), vehicle: Klucel (hydroxypropylcellulose) (HPC) 101 % of control | dose: 20.0 mg/kg/injection, schedule: Q04DX003 (ip), vehicle: Klucel (hydroxypropylcellulose) (HPC) 93 % of control

O=C(O)/C=C/S(=O)(=O)c1ccc(Cl)cc1
inactive: dose: 12.5 mg/kg/injection, schedule: Q04DX002 (ip), vehicle: Klucel (hydroxypropylcellulose) (HPC) 101 % of control | dose: 25.0 mg/kg/injection, schedule: Q01DX009 (ip), vehicle: Klucel (hydroxypropylcellulose) (HPC) 97 % of control | dose: 25.0 mg/kg/injection, schedule: Q04DX002 (ip), vehicle: Klucel (hydroxypropylcellulose) (HPC) 97 % of control | dose: 50.0 mg/kg/injection, schedule: Q01DX009 (ip), vehicle: Klucel (hydroxypropylcellulose) (HPC) 97 % of control | dose: 50.0 mg/kg/injection, schedule: Q04DX002 (ip), vehicle: Klucel (hydroxypropylcellulose) (HPC) 108 % of control | dose: 100.0 mg/kg/injection, schedule: Q04DX002 (ip), vehicle: Klucel (hydroxypropylcellulose) (HPC) 95 % of control

Cc1ccc(S(=O)(=O)SS(=O)(=O)c2ccc(C)cc2)cc1
inactive: [4] 90 % of control | dose: 200.0 mg/kg/injection, schedule: Q04DX002 (ip), vehicle: saline with Tween-80 90 % of control | dose: 400.0 mg/kg/injection, schedule: Q04DX002 (ip), vehicle: saline with Tween-80 90 % of control

CN(C)c1ccc(C(=O)CCCN2CCC(O)(c3ccc(Cl)cc3)CC2)cc1
inactive: dose: 100.0 mg/kg/injection, schedule: Q01DX001 (ip), vehicle: Klucel (hydroxypropylcellulose) (HPC) 95 % of control | dose: 200.0 mg/kg/injection, schedule: Q01DX001 (ip), vehicle: Klucel (hydroxypropylcellulose) (HPC) 94 % of control | dose: 400.0 mg/kg/injection, schedule: Q01DX001 (ip), vehicle: Klucel (hydroxypropylcellulose) (HPC) 90 % of control

[Cu+2].[NH-]C(CCC(N)=O)C(=O)O.[NH-]C(CCC(N)=O)C(=O)O (centres undefined)
inactive: dose: 6.25 mg/kg/injection, schedule: Q04DX003 (ip), vehicle: saline 96 % of control | [10] 91 % of control | [11] 100 % of control

CCCCCCCCNC(=O)C1OC(n2cnc3c(N)ncnc32)C(O)C1O (centres undefined)
inactive: dose: 100.0 mg/kg/injection, schedule: Q01DX005 (ip), vehicle: saline with Tween-80 86 % of control | dose: 100.0 mg/kg/injection, schedule: Q01DX009 (ip), vehicle: saline 104 % of control | dose: 200.0 mg/kg/injection, schedule: Q01DX005 (ip), vehicle: saline with Tween-80 105 % of control | dose: 200.0 mg/kg/injection, schedule: Q01DX009 (ip), vehicle: saline 91 % of control | dose: 400.0 mg/kg/injection, schedule: Q01DX009 (ip), vehicle: saline 110 % of control

COC1C(=O)CCC2(CO2)C1(O)C1(C)OC1CC=C(C)C (centres undefined)
inactive: dose: 50.0 mg/kg/injection, schedule: Q01DX009 (ip), vehicle: saline with Tween-80 104 % of control | dose: 100.0 mg/kg/injection, schedule: Q01DX009 (ip), vehicle: saline with Tween-80 109 % of control | [12] 106 % of control | dose: 200.0 mg/kg/injection, schedule: Q01DX009 (ip), vehicle: saline with Tween-80 87 % of control | [13] 100 % of control

Cc1cc2nc(NC(=O)C3CC3)sc2cc1C
inactive: dose: 100.0 mg/kg/injection, schedule: Q01DX009 (ip), vehicle: Klucel (hydroxypropylcellulose) (HPC) 91 % of control | dose: 200.0 mg/kg/injection, schedule: Q01DX009 (ip), vehicle: Klucel (hydroxypropylcellulose) (HPC) 91 % of control

Cc1cc(S(=O)(=O)F)cc(Cl)c1S
inactive: [2] 99 % of control | [3] 92 % of control

CCCCCCCC(=O)N1C2CN3C4=C(C(=O)C(N)=C(C)C4=O)C(COC(N)=O)C3(OC)C21 (centres undefined)
inactive: dose: 6.6 mg/kg/injection, schedule: Q01DX001 (ip), vehicle: acetone 115 % of control | dose: 9.9 mg/kg/injection, schedule: Q01DX001 (ip), vehicle: acetone 113 % of control

O=C(Nc1ccccc1)Nc1ccc([N+](=O)[O-])cc1[N+](=O)[O-]
inactive: [7] 93 % of control | [5] 92 % of control | [8] 92 % of control | [6] 93 % of control | [9] 98 % of control
